Read-outs that look alike come from different tables or passages of the source.
How the values were obtained:
HIV-1 IIIB = test: Anti-HIV assay against wild-type HIV-1 (IIIB) in MT-4 cells, MTT method; assay type: cell-based; settings: for SI (selectivity index, ratio CC50/EC50 (WT)): CC50/EC50 WT HIV-1 IIIB
Method: (§1) Untreated HIV- and mock-infected cell samples were included as controls. […] Five days after infection, the viability of mock- and HIV-infected cells was examined spectrophotometrically using the MTT assay. […] All data were calculated using the median absorbance value of three wells.

[1] = Cytotoxicity in mock-infected MT-4 cells, MTT method; settings: human, mock-infected (uninfected) MT-4 cells
Method: as §1

[2] = test system: HIV-1 L100I mutant strain; test: Anti-HIV assay against L100I mutant strain in MT-4 cells; assay type: cell-based; settings: Human immunodeficiency virus 1, MT4, read-out: EC50 L100I
Method: (§2) Evaluation of the antiviral activity of the compounds against HIV in MT-4 cells was performed using the MTT assay as previously described [24, 25]. […] Prior to use in our assays, every freshly grown virus stock was the subject of a genotypic analysis. In addition to the genotypic analysis, every stock was subject to a phenotypic analysis using a panel of relevant reference compounds in MT-4 cells. […] Stock solutions (10× final concentration) of test compounds were added in 25 μL volumes to two series of triplicate wells so as to allow simultaneous evaluation of their effects on mock- and HIV-infected cells at the beginning of each experiment. Serial 5-fold dilutions of test compounds were made directly in flat-bottomed 96-well microtiter trays using a Biomek 3000 robot (Beckman instruments, Fullerton, CA). Untreated HIV- and mock-infected cell samples were included as controls. HIV stock (50 μL) at 100–300 CCID50 (50% cell culture infectious doses) and culture medium (final 200 μL volume per well) were added to either the infected or mock-infected wells of the microtiter tray. Mock-infected cells were used to evaluate the effects of test compounds on uninfected cells in order to assess the cytotoxicity of the test compounds. Exponentially growing MT-4 cells were centrifuged for 5 min at 220× g and the supernatant was discarded. The MT-4 cells were resuspended at 6 × 10^5 cells/mL and 50 μL volumes were transferred to the microtiter tray wells. Five days after infection, the viability of mock- and HIV-infected cells was examined spectrophotometrically using the MTT assay. The MTT assay is based on the reduction of yellow colored 3-(4,5-dimethylthiazol-2-yl)-2,5-diphenyltetrazolium bromide (MTT) (Acros Organics, Geel, Belgium) by mitochondrial dehydrogenase activity in metabolically active cells to a blue-purple formazan that can be measured spectrophotometrically. The absorbances were read in an eight-channel computer-controlled photometer (Infinite M1000, Tecan, Männedorf, Switzerland) at two wavelengths (540 and 690 nm). All data were calculated using the median absorbance value of three wells.

[3] = test system: HIV-1 K103N mutant strain; test: Anti-HIV assay against K103N mutant strain in MT-4 cells; assay type: cell-based; settings: Human immunodeficiency virus 1, MT4, read-out: EC50 K103N
Method: as §2

[4] = test system: HIV-1 Y181C mutant strain; test: Anti-HIV assay against Y181C mutant strain in MT-4 cells; assay type: cell-based; settings: Human immunodeficiency virus 1, MT4, read-out: EC50 Y181C
Method: as §2

[5] = test system: HIV-1 E138K mutant strain; test: Anti-HIV assay against E138K mutant strain in MT-4 cells; assay type: cell-based; settings: Human immunodeficiency virus 1, MT4, read-out: EC50 E138K
Method: as §2

[6] = test system: HIV-1 F227L + V106A mutant strain; test: Anti-HIV assay against double mutant F227L + V106A in MT-4 cells; assay type: cell-based; settings: Human immunodeficiency virus 1, MT4, read-out: EC50 F227L + V106A
Method: as §2

[7] = test system: HIV-1 K103N + Y181C mutant strain; test: Anti-HIV assay against double mutant K103N + Y181C in MT-4 cells; assay type: cell-based; settings: Human immunodeficiency virus 1, MT4, read-out: EC50 K103N + Y181C
Method: as §2

WT HIV-1 RT = target: T1, WT HIV-1 RT (Human immunodeficiency virus type 1 group M subtype B, UniProt P03366); test: Reverse transcriptase assay (EnzCheck kit, PicoGreen); assay type: biochemical; settings: recombinant wild type p66/p51 HIV-1 RT
T1 construct: Recombinant wild type p66/p51 HIV-1 RT; made in house
Method: The RT assay was performed with the EnzCheck Reverse Transcriptase Assay kit (Molecular Probes, Invitrogen), as described by the Manufacturer. The assay is based on the dsDNA quantitation reagent PicoGreen. […] This condition is met in the assay. A poly(rA) template of approximately 350 bases long and an oligo (dT)16 primer are annealed in a molar ratio of 1:1.2 (60 min at room temperature). Then, 52 ng of the RNA/DNA is brought into each well of a 96-well plate in a volume of 20 μL polymerization buffer (60 mM Tris-HCl, 60 mM KCl, 8 mM MgCl2, 13 mM DTT, 100 μM dTTP, pH 8.1). Then, 5 μL of RT enzyme solution, diluted to a suitable concentration in enzyme dilution buffer (50 mM Tris-HCl, 20% glycerol, 2 mM DTT, pH 7.6), is added. The reactions are incubated at 25 °C for 40 min and then stopped by the addition of EDTA (15 mM fc). Heteroduplexes are then detected by addition of PicoGreen. Signals are read using an excitation wavelength of 490 nm and emission detection at 523 nm using a spectrofluorometer (Safire 2, Tecan). To test the activity of compounds against RT, 1 μL of compound in DMSO was added to each well before the addition of RT enzyme solution. Control wells without compound contained the same amount of DMSO. Results are expressed as relative fluorescence, i.e., the fluorescence signal of the reaction mix with compound divided by the signal of the same reaction mix without compound.

[8] = Human immunodeficiency virus 1, IIIB, MT4, read-out: EC50 HIV-1 IIIB
[9] = Human immunodeficiency virus 1, MT4, wild-type HIV-1 IIIB, MT-4 cells, protection against HIV-induced cytopathogenicity, read-out: EC50 HIV-1 IIIB

Row | SMILES | EC50 (HIV-1 IIIB; [8]) [µM] | CC50 at 5 days [1] [µM] | EC50 [2] [µM] | EC50 [3] [µM] | EC50 [4] [µM] | EC50 [5] [µM] | EC50 [6] [µM] | EC50 [7] [µM] | SI (selectivity index, ratio CC50/EC50 (WT)) (HIV-1 IIIB; MT-4 cells) | melting point [°C] | fold increase of antiviral activity compared with A2 (HIV-1 IIIB; WT HIV-1 IIIB, relative to A2) [fold] | IC50 (WT HIV-1 RT) [µM] | EC50 (HIV-1 IIIB; [9]) [µM]
1 | N#Cc1ccc(Nc2nccc(C(C#N)c3ccc(C#N)cc3)n2)cc1 (stereo not shown) [Compound A1, 4-(4-(cyano-(4-cyanophenyl)methyl)-pyrimidin-2-ylamino)benzonitrile] | 3.27 ± 2.25 | 32.7 ± 9.9 | ≥ 12.3 | > 32.7 | 11.3 ± 1.51 | > 32.7 | > 32.7 | > 32.7 | – | – | – | – | –
2 | Cc1cc(C(C#N)c2ccnc(Nc3ccc(C#N)cc3)n2)ccc1C#N (stereo not shown) [Compound A2, 4-(4-(cyano-(3-methyl-4-cyanophenyl)methyl)-pyrimidin-2-ylamino)benzonitrile] | 1.17 ± 0.34 | 16.1 ± 3.6 | > 16.1 | > 16.1 | > 16.1 | > 16.1 | > 16.1 | > 16.1 | 14 | 223.7 to 224.9 | – | – | –
3 | Cc1cc(C#N)ccc1C(C#N)c1ccnc(Nc2ccc(C#N)cc2)n1 (stereo not shown) [Compound A3, 4-(4-(cyano-(2-methyl-4-cyanophenyl)methyl)-pyrimidin-2-ylamino)benzonitrile] | 0.069 ± 0.008 | 10.9 ± 3.6 | 5.03 ± 0.55 | 1.96 ± 0.45 | 1.71 ± 0.13 | 3.04 ± 0.39 | > 10.9 | > 10.9 | 157 | 213.5 to 214.6 | 17 | – | –
4 | COc1cc(C(C#N)c2ccnc(Nc3ccc(C#N)cc3)n2)ccc1C#N (stereo not shown) [Compound A4, 4-(4-(cyano-(3-methoxy-4-cyanophenyl)methyl)-pyrimidin-2-ylamino)benzonitrile] | 11.7 ± 12.1 | 78.4 ± 10.4 | ≥ 61.4 | ≥ 62.2 | ≥ 48.1 | ≥ 56.6 | ≥ 61 | ≥ 65.7 | 7 | 156.2 to 157 | – | – | –
5 | N#Cc1ccc(Nc2nccc(C(C#N)c3ccc(C#N)cc3C(F)(F)F)n2)cc1 (stereo not shown) [Compound A6, 4-(4-(cyano-(2-trifluoromethyl-4-cyanophenyl)methyl)-pyrimidin-2-ylamino)benzonitrile] | 0.49 ± 0.3 | 6.2 ± 1.4 | > 6.23 | > 6.23 | 2.29 ± 0.02 | > 6.23 | > 6.23 | > 6.23 | 13 | 236.7 to 237.5 | – | – | –
6 | N#Cc1ccc(Nc2nccc(C(C#N)c3ccc(C#N)cc3F)n2)cc1 (stereo not shown) [Compound A7, 4-(4-(cyano-(2-fluoro-4-cyanophenyl)methyl)-pyrimidin-2-ylamino)benzonitrile] | 0.24 ± 0.16 | 10.3 ± 4.5 | > 10.4 | > 10.4 | > 10.4 | > 10.4 | > 10.4 | > 10.4 | 43 | 165.7 to 166.5 | – | – | –
7 | N#Cc1ccc(Nc2nccc(C(C#N)c3ccc(C#N)cc3Cl)n2)cc1 (stereo not shown) [Compound A8, 4-(4-(cyano-(2-chloro-4-cyanophenyl)methyl)-pyrimidin-2-ylamino)benzonitrile] | 0.063 ± 0.009 | 4.6 ± 2.7 | ≥ 2.37 | 2.13 ± 0.22 | 1.87 ± 0.21 | 2.2 ± 0.35 | > 4.59 | > 4.59 | – | – | – | – | –
8 | N#Cc1ccc(Nc2nccc(C(C#N)c3ccc(C#N)cc3Br)n2)cc1 (stereo not shown) [Compound A9, 4-(4-(cyano-(2-bromo-4-cyanophenyl)methyl)-pyrimidin-2-ylamino)benzonitrile] | 0.079 ± 0.02 | 3.4 ± 0.3 | > 3.35 | ≥ 1.88 | 1.88 ± 0.42 | 2.31 ± 0.02 | > 3.35 | > 3.35 | 42 | 223.5 to 224.7 | – | – | –
9 | N#Cc1ccc(Nc2nccc(C(C#N)c3c(Cl)cc(C#N)cc3Cl)n2)cc1 (stereo not shown) [Compound A10, 4-(4-(cyano-(2,6-dichloro-4-cyanophenyl)methyl)-pyrimidin-2-ylamino)benzonitrile] | 0.082 ± 0.02 | 4.5 ± 1.3 | 2.32 ± 0.48 | 1.78 ± 0.12 | 2.2 ± 0.27 | 2.19 ± 0.22 | > 4.49 | > 4.49 | 55 | 152.5 to 153.2 | – | – | –
10 | Cc1c(C(C#N)c2ccnc(Nc3ccc(C#N)cc3)n2)ccc(C#N)c1Cl (stereo not shown) [Compound A11, 4-(4-(cyano-(2-methyl-3-chloro-4-cyanophenyl)methyl)-pyrimidin-2-ylamino)benzonitrile] | 0.3 ± 0.03 | 6.1 ± 0.5 | 2.32 ± 0.48 | > 6.11 | > 6.11 | > 6.11 | > 6.11 | > 6.11 | – | – | – | – | –
11 | Cc1cc(C#N)c(Br)cc1C(C#N)c1ccnc(Nc2ccc(C#N)cc2)n1 (stereo not shown) [Compound A12, 4-(4-(cyano-(2-methyl-5-bromo-4-cyanophenyl)methyl)-pyrimidin-2-ylamino)benzonitrile] | 0.24 ± 0.04 | 13.2 ± 1.6 | > 13.2 | 2.52 ± 0.42 | 2.78 ± 0.36 | 3.73 ± 0.59 | > 13.2 | > 13.2 | – | – | – | – | –
12 | Cc1cnc(Nc2ccc(C#N)cc2)nc1C(C#N)c1ccc(C#N)cc1F (stereo not shown) [Compound B2, 4-(4-(cyano-(2-fluoro-4-cyanophenyl)methyl)-5 methylpyrimidin-2-ylamino)benzonitrile] | 0.04 ± 0.02 | 20.6 ± 3.6 | 3.04 ± 1.13 | 1.07 ± 0.37 | 1.59 ± 0.18 | 0.97 ± 0.14 | > 20.6 | > 20.6 | – | – | – | 0.22 ± 0.05 | –
13 | O=C1Nc2ccc(Cl)cc2[C@@](C#CC2CC2)(C(F)(F)F)O1 [Efavirenz, efavirenz, reference compound] | – | > 6.3 | 0.04 ± 0.008 | 0.08 ± 0.01 | 0.006 ± 0.001 | 0.005 ± 0.002 | 0.28 ± 0.07 | 0.24 ± 0.06 | >3939 | – | – | – | 0.003 ± 0.001
14 | Cc1cc(C#N)cc(C)c1Oc1nc(Nc2ccc(C#N)cc2)nc(N)c1Br [Etravirine, etravirine, reference compound] | 0.005 ± 0.001 | > 4.6 | 0.008 ± 0.002 | 0.003 ± 0.001 | 0.017 ± 0.003 | 0.008 ± 0.004 | 0.014 ± 0.005 | 0.04 ± 0.01 | – | – | – | – | –
15 | Cc1ccnc2c1NC(=O)c1cccnc1N2C1CC1 [Nevirapine, nevirapine, reference compound] | – | > 15 | 0.98 ± 0.39 | 4.7 ± 0.63 | – | 0.2 ± 0.15 | ≥ 4.28 | > 15 | – | – | – | – | 0.2 ± 0.1
16 | Cc1cc(/C=C/C#N)cc(C)c1Nc1ccnc(Nc2ccc(C#N)cc2)n1 [Rilpivirine, rilpivirine, reference compound] | 0.0016 ± 0.0003 | 5.9 ± 0.3 | 0.002 ± 0.001 | 0.001 ± 0.0002 | 0.003 ± 0.001 | 0.003 ± 0.001 | 0.04 ± 0.01 | 0.009 ± 0.002 | 3747 | – | – | – | –
